Measured values: ChEMBL document CHEMBL2375321, “Discovery of 3,3'-diindolylmethanes as potent antileishmanial agents” (Eur J Med Chem, 2013)
≈ marks a conversion by molar mass, not a printed value. Calls of active or inactive are those of the source. Unless noted, no cut-off for these calls is given here.

Legend:
Cryptococcus neoformans = assay: Antifungal activity against Cryptococcus neoformans ATCC 90113 by CLSI method; format: functional, organism-based
Candida albicans = assay: Antifungal activity against Candida albicans ATCC 90028 by CLSI method; format: functional, organism-based
Aspergillus fumigatus = assay: Antifungal activity against Aspergillus fumigatus ATCC 204305 by CLSI method; format: functional, organism-based
[1] = system: Mycobacterium intracellulare; assay: Antibacterial activity against Mycobacterium intracellulare ATCC 23068 by alamar blue assay; format: functional, organism-based
Staphylococcus aureus [2] = assay: Antibacterial activity against methicillin-resistant Staphylococcus aureus ATCC 33591 by CLSI method; format: functional, organism-based; conditions: for IC50: read-out: IC50
Staphylococcus aureus [3] = assay: Antibacterial activity against Staphylococcus aureus ATCC 29213 by CLSI method; format: functional, organism-based
Vero = assay: Cytotoxicity against african green monkey Vero cells up to 4.6 ug/ml after 48 hrs by neutral red assay; format: cell-based; conditions: chlorocebus sabaeus
Leishmania donovani [4] = assay: Antileishmanial activity against axenic amastigote of Leishmania donovani after 72 hrs by alamar blue assay; format: functional, organism-based; conditions: Leishmania donovani, 72 h; for IC50: read-out: IC50
Leishmania donovani [5] = assay: Antileishmanial activity against promastigote of Leishmania donovani after 72 hrs by alamar blue assay; format: functional, organism-based; conditions: Leishmania donovani, 72 h; for IC50: read-out: IC50
Bacillus subtilis = assay: Antibacterial activity against Bacillus subtilis by CLSI method; format: functional
[6] = Staphylococcus aureus, ATCC 33591

SMILES	IC50 (Cryptococcus neoformans)	MFC (Cryptococcus neoformans)	MIC (Cryptococcus neoformans)	Activity (Candida albicans)	Activity (Aspergillus fumigatus)	IC50 [1]	MBC [1]	MIC [1]	MBC (Staphylococcus aureus [2])	MIC (Staphylococcus aureus [2]; [6])	IC50 (Staphylococcus aureus [2]; [6])	IC50 (Staphylococcus aureus [3])	MBC (Staphylococcus aureus [3])	MIC (Staphylococcus aureus [3])	Activity (Vero)	IC90 (Leishmania donovani [4])	IC50 (Leishmania donovani [4])	IC90 (Leishmania donovani [5])	IC50 (Leishmania donovani [5])	other results
Fc1cc(F)cc(C(c2c[nH]c3ccccc23)c2c[nH]c3ccccc23)c1	2.32 µM	3.49 µM (≈ 1.25 µg/mL)	3.49 µM (≈ 1.25 µg/mL)	inactive	inactive	Not Active	inactive	inactive	inactive	6.98 µM (≈ 2.5 µg/mL)	2.93 µM	2.32 µM	inactive	3.49 µM (≈ 1.25 µg/mL)	Non-toxic	95.6 µM	67.4 µM	19.8 µM	8.35 µM	
COc1cc(C(c2c[nH]c3ccc(I)cc23)c2c[nH]c3ccc(I)cc23)ccc1O	3.92 µM	inactive	32.3 µM (≈ 20 µg/mL)	inactive	inactive	Not Active	inactive	inactive	inactive	4.03 µM (≈ 2.5 µg/mL)	2.11 µM	1.89 µM	inactive	4.03 µM (≈ 2.5 µg/mL)	Non-toxic	47.2 µM	31.6 µM	37.9 µM	20.8 µM	
O=C1N[C@@H](c2c[nH]c3cc(Br)ccc23)CN=C1c1c[nH]c2cc(Br)ccc12 [HAMACANTHIN A]										6.45 µM (≈ 3.14 µg/mL)				6.45 µM (≈ 3.14 µg/mL)						MIC (Bacillus subtilis): 3.22 µM (≈ 1.57 µg/mL)
Clc1ccc(C(c2c[nH]c3ccccc23)c2c[nH]c3ccccc23)cc1	5.56 µM	14 µM (≈ 5.01 µg/mL)	14 µM (≈ 5.01 µg/mL)	inactive	inactive	Not Active	inactive	inactive		14 µM (≈ 5 µg/mL)	6.12 µM	3.79 µM	inactive	7.02 µM (≈ 2.51 µg/mL)	Non-toxic	77 µM	42 µM	39 µM	26.7 µM	MBC (Staphylococcus aureus [2]; [6]): 56.2 µM (≈ 20.1 µg/mL)
COc1ccc(C(c2c[nH]c3ccccc23)c2c[nH]c3ccccc23)cc1O	16.9 µM	27.2 µM (≈ 10 µg/mL)	27.2 µM (≈ 10 µg/mL)	inactive	inactive	Not Active	inactive	inactive	inactive	27.2 µM (≈ 10 µg/mL)	12.3 µM	7.47 µM	inactive	13.6 µM (≈ 5.01 µg/mL)	Non-toxic	79.5 µM	42.2 µM	95.6 µM	85 µM	
Brc1cccc(C(c2c[nH]c3ccccc23)c2c[nH]c3ccccc23)c1	5.33 µM	12.5 µM (≈ 5.02 µg/mL)	12.5 µM (≈ 5.02 µg/mL)	inactive	inactive	Not Active	inactive	inactive	inactive	12.5 µM (≈ 5.02 µg/mL)	6.3 µM	3.75 µM	inactive	12.5 µM (≈ 5.02 µg/mL)	Non-toxic	75.6 µM	35.9 µM	59.4 µM	27.4 µM	
Brc1ccc(C(c2c[nH]c3ccc(I)cc23)c2c[nH]c3ccc(I)cc23)cc1	5.58 µM	30.7 µM (≈ 20 µg/mL)	30.7 µM (≈ 20 µg/mL)	inactive	inactive										Non-toxic	46.6 µM	13.1 µM	8.47 µM	4.49 µM	
O=[N+]([O-])c1ccc(C(c2c[nH]c3ccccc23)c2c[nH]c3ccccc23)o1	29.6 µM	inactive	inactive	inactive	inactive		inactive	inactive	inactive	14 µM (≈ 5 µg/mL)	8.54 µM	12 µM	28 µM (≈ 10 µg/mL)	28 µM (≈ 10 µg/mL)	Non-toxic	41.8 µM	31.5 µM	12.2 µM	6.61 µM	IC50 ([1]; Mycobacterium intracellulare, ATCC 23068, read-out: IC50): 52.9 µM
